Laboratory results from ChEMBL document CHEMBL3525902, “In vitro metabolism of oxymetazoline: evidence for bioactivation to a reactive metabolite” (Drug Metab Dispos, 2011).

Tests used:
[1] = Drug level in NADPH supplemented rabbit liver S9 fraction treated with 50 uM oxymetazoline assessed as compound-glutathione conjugate formation in presence of glutathione by LC-MS/MS method; type: ADME, subcellular, Oryctolagus cuniculus
Liver microsome [2] = assay: Drug level in NADPH supplemented rat liver microsomes fraction treated with 50 uM oxymetazoline assessed as compound formation after 1 hr by LC-MS/MS method; type: ADME
Liver [3] = assay: Drug level in NADPH supplemented rat liver S9 fraction treated with 50 uM oxymetazoline assessed as compound formation after 1 hr by LC-MS/MS method; type: ADME, subcellular; conditions: s9, 1 h
[4] = Drug level in NADPH supplemented human liver S9 fraction treated with 50 uM oxymetazoline assessed as compound-glutathione conjugate formation in presence of glutathione by LC-MS/MS method; type: ADME, subcellular
Liver [5] = assay: Drug level in NADPH supplemented human liver S9 fraction treated with 50 uM oxymetazoline assessed as compound formation after 1 hr by LC-MS/MS method; type: ADME, subcellular; conditions: s9, 1 h
[6] = Drug level in NADPH supplemented rabbit liver S9 fraction treated with 50 uM oxymetazoline assessed as compound formation after 1 hr by LC-MS/MS method; type: ADME, subcellular, Oryctolagus cuniculus; conditions: s9, 1 h
[7] = Drug level in NADPH supplemented rat liver S9 fraction treated with 50 uM oxymetazoline assessed as compound-glutathione conjugate formation in presence of glutathione by LC-MS/MS method; type: ADME, subcellular
Cytochrome P450 2C19 [8] = target: T1, Cytochrome P450 2C19 (Homo sapiens, UniProt P33261); assay: Activity of human recombinant CYP2C19 assessed as compound formation from 50 uM oxymetazoline in presence of NADPH by LC-MS/MS method; type: ADME; conditions: recombinant enzyme
T1 sequence (P33261 whole entry): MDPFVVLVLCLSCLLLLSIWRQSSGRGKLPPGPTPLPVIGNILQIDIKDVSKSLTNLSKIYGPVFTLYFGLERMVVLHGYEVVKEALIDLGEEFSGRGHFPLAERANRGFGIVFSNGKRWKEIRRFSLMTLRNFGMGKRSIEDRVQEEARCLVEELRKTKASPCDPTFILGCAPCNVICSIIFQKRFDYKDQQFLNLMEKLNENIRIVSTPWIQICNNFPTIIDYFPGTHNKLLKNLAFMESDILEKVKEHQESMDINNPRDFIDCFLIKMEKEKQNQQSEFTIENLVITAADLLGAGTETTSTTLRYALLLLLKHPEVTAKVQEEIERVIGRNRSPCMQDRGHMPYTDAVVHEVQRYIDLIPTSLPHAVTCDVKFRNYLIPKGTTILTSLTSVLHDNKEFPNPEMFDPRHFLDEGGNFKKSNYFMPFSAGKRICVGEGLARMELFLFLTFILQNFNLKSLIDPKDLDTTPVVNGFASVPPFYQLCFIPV

[9] = Drug level in NADPH supplemented rabbit liver microsomes fraction treated with 50 uM oxymetazoline assessed as compound formation after 1 hr by LC-MS/MS method; type: ADME, Oryctolagus cuniculus
[10] = Retention time of the compound at 50 uM by LC-MS/MS method; type: physicochemical
Liver microsome [11] = assay: Drug level in NADPH supplemented human liver microsomes fraction treated with 50 uM oxymetazoline assessed as compound formation after 1 hr by LC-MS/MS method; type: ADME
[12] = Drug level in NADPH supplemented rabbit liver S9 fraction treated with 50 uM oxymetazoline assessed as compound-N-acetyl cysteine conjugate formation in presence of N-acetyl cysteine by LC-MS/MS method; type: ADME, subcellular, Oryctolagus cuniculus
Cytochrome P450 2C19 [13] = target: T1, Cytochrome P450 2C19; assay: Activity of human recombinant CYP2C19 assessed as compound formation from 50 uM oxymetazoline in presence of NADPH and glutathione by LC-MS/MS method; type: ADME; conditions: recombinant enzyme

Row | Drug metabolism [1] | Drug metabolism (Liver microsome [2]) | Drug metabolism (Liver [3]) | Drug metabolism [4] | Drug metabolism (Liver [5]) | Drug metabolism [6] | Drug metabolism [7] | Drug metabolism (Cytochrome P450 2C19 [8]) | Drug metabolism [9] | Retention_time [10] [min] | Drug metabolism (Liver microsome [11]) | Drug metabolism (Cytochrome P450 2C19 [13]) | Structure (SMILES) | Drug metabolism [12]
1 | metabolite_detected |  | metabolite_detected | metabolite_detected | metabolite_detected | metabolite_detected | metabolite_detected |  |  | 4.22 |  | metabolite_detected | Cc1c(O)c(C(C)(C)C)cc(CSC[C@H](NC(=O)CC[C@H](N)C(=O)O)C(=O)NCC(=O)O)c1CC1=NCCN1 | 
2 | metabolite_detected |  | metabolite_detected | metabolite_detected | metabolite_detected | metabolite_detected | metabolite_detected |  |  | 4.65 |  | metabolite_detected | Cc1c(O)c(C(C)(C)C)cc(CSC[C@H](NC(=O)CC[C@H](N)C(=O)O)C(=O)NCC(=O)O)c1Cc1ncc[nH]1 | 
3 |  |  |  |  | metabolite_detected | metabolite_detected |  |  |  | 3.17 |  |  | Cc1c(O)c(C(C)(C)C)cc(CSC[C@H](N)C(=O)O)c1CC1=NCCN1 | 
4 |  |  |  |  |  | metabolite_detected |  |  |  | 3.86 |  |  | Cc1c(O)c(C(C)(C)CO)cc(CSC[C@H](NC(=O)CC[C@H](N)C(=O)O)C(=O)NCC(=O)O)c1CC1=NCCN1 | 
5 |  |  |  |  |  | metabolite_detected |  |  |  | 6.34 |  |  | Cc1c(O)c(C(C)(C)CO)cc(CSC[C@H](NC(=O)CC[C@H](N)C(=O)O)C(=O)NCC(=O)O)c1Cc1ncc[nH]1 | 

The remaining lines, values behind:

Row | Structure (SMILES) | Drug metabolism [1] | Drug metabolism (Liver microsome [2]) | Drug metabolism (Liver [3]) | Drug metabolism [4] | Drug metabolism (Liver [5]) | Drug metabolism [6] | Drug metabolism [7] | Drug metabolism (Cytochrome P450 2C19 [8]) | Drug metabolism [9] | Retention_time [10] [min] | Drug metabolism (Liver microsome [11]) | Drug metabolism (Cytochrome P450 2C19 [13]) | Drug metabolism [12]
6 | Cc1cc(C(C)(C)CO)c(O)c(C)c1CC1=NCCN1 | metabolite_detected | metabolite_detected | metabolite_detected | metabolite_detected | metabolite_detected | metabolite_detected | metabolite_detected | metabolite_detected | metabolite_detected | 4.95 | metabolite_detected |  | 
7 | Cc1cc(C(C)(C)C)c(O)c(C)c1Cc1ncc[nH]1 |  | metabolite_detected | metabolite_detected |  | metabolite_detected | metabolite_detected |  | metabolite_detected | metabolite_detected | 12.36 | metabolite_detected |  | metabolite_detected
8 | Cc1cc(C(C)(C)CO)c(O)c(C)c1Cc1ncc[nH]1 | metabolite_detected | metabolite_detected | metabolite_detected | metabolite_detected | metabolite_detected | metabolite_detected | metabolite_detected | metabolite_detected | metabolite_detected | 5.64 | metabolite_detected |  | 
9 | CC(=O)N[C@@H](CSCc1cc(C(C)(C)C)c(O)c(C)c1CC1=NCCN1)C(=O)O |  |  |  |  |  |  |  |  |  |  |  |  | metabolite_detected
10 | Cc1c(O)c(C(C)(C)C)cc(CSC[C@H](N)C(=O)O)c1Cc1ncc[nH]1 |  |  |  |  |  | metabolite_detected |  |  |  | 3.48 |  |  | 
